Molecular target: T1, HDAC6 enzyme (Homo sapiens, UniProt Q9UBN7)
T1 construct: transducing full length HDAC6 gene into Sf-9 insect cells; GST; purchased SignalChem; host or cells: Sf-9 insect cells
T1 sequence (Q9UBN7 1-1215): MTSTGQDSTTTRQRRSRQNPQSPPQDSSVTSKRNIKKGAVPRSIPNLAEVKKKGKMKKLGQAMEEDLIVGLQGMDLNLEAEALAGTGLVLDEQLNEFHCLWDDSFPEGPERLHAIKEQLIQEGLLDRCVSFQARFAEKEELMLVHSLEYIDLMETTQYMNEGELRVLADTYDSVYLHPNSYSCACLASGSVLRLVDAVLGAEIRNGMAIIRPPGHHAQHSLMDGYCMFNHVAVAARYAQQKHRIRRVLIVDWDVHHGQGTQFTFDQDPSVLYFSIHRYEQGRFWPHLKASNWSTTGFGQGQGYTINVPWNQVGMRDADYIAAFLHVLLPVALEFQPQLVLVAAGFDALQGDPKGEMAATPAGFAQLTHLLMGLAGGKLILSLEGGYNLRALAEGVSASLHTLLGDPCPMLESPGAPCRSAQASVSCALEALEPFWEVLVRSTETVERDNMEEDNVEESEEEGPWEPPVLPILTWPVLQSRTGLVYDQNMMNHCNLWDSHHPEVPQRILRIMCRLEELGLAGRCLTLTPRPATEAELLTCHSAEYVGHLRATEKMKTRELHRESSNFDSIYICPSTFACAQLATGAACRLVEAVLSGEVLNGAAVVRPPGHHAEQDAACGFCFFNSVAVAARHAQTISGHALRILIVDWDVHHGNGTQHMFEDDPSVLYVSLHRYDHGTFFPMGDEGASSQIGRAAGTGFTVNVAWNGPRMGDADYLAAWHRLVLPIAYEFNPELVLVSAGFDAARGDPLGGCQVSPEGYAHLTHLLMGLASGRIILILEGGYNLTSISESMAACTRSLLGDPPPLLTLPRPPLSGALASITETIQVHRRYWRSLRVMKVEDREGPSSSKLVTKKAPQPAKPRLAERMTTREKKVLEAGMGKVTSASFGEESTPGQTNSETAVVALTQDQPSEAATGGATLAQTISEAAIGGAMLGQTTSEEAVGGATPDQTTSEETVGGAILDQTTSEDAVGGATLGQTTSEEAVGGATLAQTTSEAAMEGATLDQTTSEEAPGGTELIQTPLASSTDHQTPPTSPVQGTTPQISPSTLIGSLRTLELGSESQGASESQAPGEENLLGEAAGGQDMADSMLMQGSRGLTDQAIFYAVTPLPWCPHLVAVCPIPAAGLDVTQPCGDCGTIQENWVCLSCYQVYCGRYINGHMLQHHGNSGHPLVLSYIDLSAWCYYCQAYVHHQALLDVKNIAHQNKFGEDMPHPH
Assay: HDAC6 enzyme inhibitory activity (HDAC-Glo I/II Assay kit)
Assay type: biochemical
Details: 10 μM; wells without enzyme = 100% inhibition; read-out: HDAC6 inhibitory rate (%) (10 μM)
How it was run: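 Luminescent HDAC-Glo I/II readout after 20 min room-temperature reaction with substrate-developer, following 60 min compound–enzyme preincubation. Enzyme: full-length HDAC6 from Sf-9 cells, GST-purified; buffer 24 mM Tris-HCl pH 7.5, 0.01% Tween-20, glutathione, salts. Wells lacking enzyme define 100% inhibition.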

| Compound | inhibition at 10 µM |
| --- | --- |
| CC(F)(F)C(=O)N[C@H]1COCC[C@H]1N1Cc2c(F)cc(-c3nnc(C(F)F)o3)cc2C1=O [Example 366, N-((3R,4R)-4-(6-(5-(difluoromethyl)-1,3,4-oxadiazol-2-yl)-4-fluoro-1-oxo-1,3-dihydro-2H-isoindol-2-yl)tetrahydro-2H-pyran-3-yl)-2,2-difluoropropanamide] | 97% |
| O=C1c2cc(-c3nnc(C(F)F)o3)cnc2CN1[C@@H]1CCCC[C@H]1NCC(F)(F)F [Example 367, 3-(5-(difluoromethyl)-1,3,4-oxadiazol-2-yl)-6-((1R,2R)-2-((2,2,2-trifluoroethyl)amino)-cyclohexyl)-6,7-dihydro-5H-pyrrolo[3,4-b]pyridin-5-one] | 101% |
| Cn1cc(-c2cccc(C#N)c2)c(N2Cc3ccc(-c4nnc(C(F)F)o4)cc3C2=O)n1 [Example 368, 3-(3-(6-(5-(difluoromethyl)-1,3,4-oxadiazol-2-yl)-1-oxo-1,3-dihydro-2H-isoindol-2-yl)-1-methyl-1H-pyrazol-4-yl)benzonitrile] | 99% |
| Cn1cc(-c2cccc(Cl)c2)c(N2Cc3ccc(-c4nnc(C(F)F)o4)cc3C2=O)n1 [Example 369, 2-(4-(3-chlorophenyl)-1-methyl-1H-pyrazol-3-yl)-6-(5-(difluoro-methyl)-1,3,4-oxadiazol-2-yl)isoindolin-1-one] | 99% |
| O=C1c2cc(-c3nnc(C(F)F)o3)cnc2CN1Cc1cccc(C(F)F)c1 [Example 370, 6-(3-(difluoromethyl)benzyl)-3-(5-(difluoro-methyl)-1,3,4-oxadiazol-2-yl)-6,7-dihydro-5H-pyrrolo[3,4-b]pyridin-5-one] | 101% |
| O=C1c2cc(-c3nnc(C(F)F)o3)cc(F)c2CN1C1(CNS(=O)(=O)CC(F)(F)F)CCCCC1 [Example 371, N-((1-(6-(5-(difluoro-methyl)-1,3,4-oxadiazol-2-yl)-4-fluoro-1-oxo-1,3-dihydro-2H-isoindol-2-yl)cyclohexyl)methyl)-2,2,2-trifluoroethane-sulfonamide] | 99% |
| O=C1c2cc(-c3nnc(C(F)F)o3)cc(F)c2CN1[C@@H]1CCOC[C@@H]1NCC(F)(F)F [Example 374, 6-(5-(difluoromethyl)-1,3,4-oxadiazol-2-yl)-4-fluoro-2-((3R,4R)-3-((2,2,2-trifluoroethyl)amino)tetrahydro-2H-pyran-4-yl)isoindolin-1-one] | 99% |
| O=C1c2cc(-c3nnc(C(F)F)o3)cc(F)c2CN1[C@@H]1CCOC[C@@H]1NCC(F)(F)C(F)(F)F [Example 375, 6-(5-(difluoromethyl)-1,3,4-oxadiazol-2-yl)-4-fluoro-2-((3R,4R)-3-((2,2,3,3,3-pentafluoropropyl)amino)tetrahydro-2H-pyran-4-yl)isoindolin-1-one] | 101% |
| O=C1c2cc(-c3nnc(C(F)F)o3)cc(F)c2CN1C[C@@H]1CCCN1C(=O)C1CC1 [Example 379, 2-(((2S)-1-(cyclopropyl-carbonyl)pyrrolidin-2-yl)methyl)-6-(5-(difluoromethyl)-1,3,4-oxadiazol-2-yl)-4-fluoro-isoindolin-1-one] | 97% |
| O=C1c2cc(-c3nnc(C(F)F)o3)cc(F)c2CN1C[C@@H]1CCCN1S(=O)(=O)CC(F)(F)F [Example 380, 6-(5-(difluoro-methyl)-1,3,4-oxadiazol-2-yl)-4-fluoro-2-(((2S)-1-((2,2,2-trifluoroethyl)sulfonyl)pyrrolidin-2-yl)methyl) isoindolin-1-one] | 99% |
| O=C1c2cc(-c3nnc(C(F)F)o3)ccc2CN1c1cccnc1-c1cnn(C(F)F)c1 [Example 387, 6-(5-(difluoro-methyl)-1,3,4-oxadiazol-2-yl)-2-(2-(1-(difluoro-methyl)-1H-pyrazol-4-yl)pyridin-3-yl) isoindolin-1-one] | 101% |

The next lines start with the values.

| inhibition at 10 µM | Compound |
| --- | --- |
| 92% | O=C1c2cc(-c3nnc(C(F)F)o3)cc(F)c2CN1c1ccccc1Br [Example 372, 2-(2-bromophenyl)-6-(5-(difluoromethyl)-1,3,4-oxadiazol-2-yl)-4-fluoroisoindolin-1-one] |
| 97% | O=C1c2cc(-c3nnc(C(F)F)o3)ccc2CN1c1cccc(F)c1Br [Example 373, 2-(2-bromo-3-fluorophenyl)-6-(5-(difluoromethyl)-1,3,4-oxadiazol-2-yl)isoindolin-1-one] |
| 101% | N#Cc1cccc(-c2ccccc2N2Cc3c(F)cc(-c4nnc(C(F)F)o4)cc3C2=O)c1 [Example 376, 2′-(6-(5-(difluoro-methyl)-1,3,4-oxadiazol-2-yl)-4-fluoro-1-oxo-1,3-dihydro-2H-isoindol-2-yl)biphenyl-3-carbonitrile] |
| 101% | N#Cc1cccc(-c2c(F)cccc2N2Cc3ccc(-c4nnc(C(F)F)o4)cc3C2=O)c1 [Example 377, 2′-(6-(5-(difluoro-methyl)-1,3,4-oxadiazol-2-yl)-1-oxo-1,3-dihydro-2H-isoindol-2-yl)-6′-fluorobiphenyl-3-carbonitrile] |
| 99% | N#Cc1cccc(-c2cc(F)ccc2N2Cc3c(F)cc(-c4nnc(C(F)F)o4)cc3C2=O)c1 [Example 378, 2′-(6-(5-(difluoro-methyl)-1,3,4-oxadiazol-2-yl)-4-fluoro-1-oxo-1,3-dihydro-2H-isoindol-2-yl)-5′-fluorobiphenyl-3-carbonitrile] |
| 100% | O=C1c2cc(-c3nnc(C(F)F)o3)cc(F)c2CN1c1ccc(F)cc1-c1cnn(C(F)F)c1 [Example 381, 6-(5-(difluoro-methyl)-1,3,4-oxadiazol-2-yl)-2-(2-(1-(difluoro-methyl)-1H-pyrazol-4-yl)-4-fluorophenyl)-4-fluoroisoindolin-1-one] |
| 98% | Cn1cc(-c2cc(F)ccc2N2Cc3c(F)cc(-c4nnc(C(F)F)o4)cc3C2=O)cn1 [Example 382, 6-(5-(difluoro-methyl)-1,3,4-oxadiazol-2-yl)-4-fluoro-2-(4-fluoro-2-(1-methyl-1H-pyrazol-4-yl)phenyl) isoindolin-1-one] |
| 95% | O=C1c2cc(-c3nnc(C(F)F)o3)cc(F)c2CN1c1ccc(F)cc1-c1cccc(F)c1 [Example 383, 2-(3′,5-difluoro-biphenyl-2-yl)-6-(5-(difluoro-methyl)-1,3,4-oxadiazol-2-yl)-4-fluoroiso-indolin-1-one] |
| 99% | Cn1cc(-c2cccc(F)c2)c(N2Cc3ccc(-c4nnc(C(F)F)o4)cc3C2=O)n1 [Example 384, 6-(5-(difluoro-methyl)-1,3,4-oxadiazol-2-yl)-2-(4-(3-fluoro-phenyl)-1-methyl-1H-pyrazol-3-yl) isoindolin-1-one] |
| 101% | O=C1c2cc(-c3nnc(C(F)F)o3)ccc2CN1c1ccc(F)cc1-c1cnn(C(F)F)c1 [Example 385, 6-(5-(difluoro-methyl)-1,3,4-oxadiazol-2-yl)-2-(2-(1-(difluoro-methyl)-1H-pyrazol-4-yl)-4-fluorophenyl) isoindolin-1-one] |
| 101% | O=C1c2cc(-c3nnc(C(F)F)o3)ccc2CN1c1ccc(F)cc1-c1cccc(F)c1 [Example 386, 2-(3′,5-difluoro-biphenyl-2-yl)-6-(5-(difluoro-methyl)-1,3,4-oxadiazol-2-yl) isoindolin-1-one] |
| 101% | Cn1nc(C(F)(F)F)cc1-c1cc(F)ccc1N1Cc2c(F)cc(-c3nnc(C(F)F)o3)cc2C1=O [Example 388, 6-(5-(difluoro-methyl)-1,3,4-oxadiazol-2-yl)-4-fluoro-2-(4-fluoro-2-(1-methyl-3-(trifluoro-methyl)-1H-pyrazol-5-yl)phenyl) isoindolin-1-one] |
| 101% | Cn1nc(C(F)(F)F)cc1-c1cc(F)ccc1N1Cc2ccc(-c3nnc(C(F)F)o3)cc2C1=O [Example 389, 6-(5-(difluoro-methyl)-1,3,4-oxadiazol-2-yl)-2-(4-fluoro-2-(1-methyl-3-(trifluoro-methyl)-1H-pyrazol-5-yl)phenyl) isoindolin-1-one] |
